Consider 41 molecules from patent US20230293518A1 (Edgewise Therapeutics, Inc., priority 2020, published 2023).

Where only a bound is given, the exact number is not on record here.

The first experiment concerns the target skeletal myofibrils (myosin ATPase). The experiment in a line: Skeletal Myofibril ATPase Assay. Type of experiment: biochemical. The following applies: Table 4A. The method, boiled down: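 Skeletal myofibril ATPase activity was measured via PK-LDH coupling, following NADH loss at 340 nm every 1.5-2 min for 45 min in PIPES/CaCl2/EGTA pCa buffer, pH 7.0. Max−Min slopes were normalised to 1% DMSO vehicle (100%) and fit to a four-parameter logistic (bottom ≥0) for IC50.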
By IC50 is commonly meant the concentration that inhibits the measured activity by half. In turn, `CCNC(=O)Cn1nc(-c2ccc(N3CC4(C3)CS(=O)(=O)C4)nc2)ccc1=O` [Compound I-32, 2-(3-(6-(2,2-dioxido-2-thia-6-azaspiro[3.3]heptan-6-yl)pyridin-3-yl)-6-oxopyridazin-1(6H)-yl)-N-ethylacetamide] registered an IC50 greater than 100 µM.
On the same count and under the same terms, under `CCNC(=O)Cn1nc(-c2ccc(OCCCN(C)C)nc2)ccc1=O` [Compound I-28, 2-(3-(6-(3-(dimethylamino)propoxy)pyridin-3-yl)-6-oxopyridazin-1(6H)-yl)-N-ethylacetamide] stands greater than 100 µM.
With `O=C(Cn1nc(-c2ccc(OC(F)F)nc2)ccc1=O)N[C@H]1CC12CC2` [Compound I-17, (S)-2-(3-(6-(difluoromethoxy)pyridin-3-yl)-6-oxopyridazin-1(6H)-yl)-N-(spiro[2.2]pentan-1-yl)acetamide], the IC50 was in the range of 10 to 100 µM.
Still for that read-out and setting: the value for `CCNC(=O)Cn1nc(-c2cnc(Oc3ccc(Cl)cc3)nc2)ccc1=O` [Compound I-78, 2-(3-(2-(4-chlorophenoxy)pyrimidin-5-yl)-6-oxopyridazin-1(6H)-yl)-N-ethylacetamide] was 10 to 100 µM; that for `CCNC(=O)Cn1nc(-c2ccc(NC)nc2)ccc1=O` [Compound I-47, N-ethyl-2-(3-(6-(methylamino)pyridin-3-yl)-6-oxopyridazin-1(6H)-yl)acetamide] was less than 10 µM; that for `C[C@H](NC(=O)Cn1nc(-c2ccc(OC(F)F)nc2)ccc1=O)c1ccnn1C` [Compound I-29, (S)-2-(3-(6-(difluoromethoxy)pyridin-3-yl)-6-oxopyridazin-1(6H)-yl)-N-(1-(1-methyl-1H-pyrazol-5-yl)ethyl)acetamide] was greater than 100 µM.
The same measure, in the same setting: under `CCNC(=O)Cn1nc(-c2ccc(N3CC(C)(C)C3)nc2)ccc1=O` [Compound I-18, 2-(3-(6-(3,3-dimethylazetidin-1-yl)pyridin-3-yl)-6-oxopyridazin-1(6H)-yl)-N-ethylacetamide] stands 10 to 100 µM; under `O=C(Cn1nc(-c2cnc(OCC(F)(F)F)nc2)ccc1=O)NC1CCC1` [Compound I-71, N-cyclobutyl-2-(6-oxo-3-(2-(2,2,2-trifluoroethoxy)pyrimidin-5-yl)pyridazin-1(6H)-yl)acetamide], less than 10 µM.
The molecule `CCNC(=O)Cn1nc(-c2cnc(OCC(F)(F)F)nc2)ccc1=O` [Compound I-8, N-ethyl-2-(6-oxo-3-(2-(2,2,2-trifluoroethoxy)pyrimidin-5-yl)pyridazin-1(6H)-yl)acetamide] came in with an IC50 of less than 10 µM.
`CCNC(=O)Cn1nc(-c2ccc(C3CC3)nc2)ccc1=O` [Compound I-12, 2-(3-(6-cyclopropylpyridin-3-yl)-6-oxopyridazin-1(6H)-yl)-N-ethylacetamide] showed an IC50 of 10 to 100 µM.
The same measure, in the same setting: the value for `CCNC(=O)Cn1nc(-c2ccc(N(C)C34CC(C3)C4)nc2)ccc1=O` [Compound I-64, 2-(3-(6-(bicyclo[1.1.1]pentan-1-yl(methyl)amino)pyridin-3-yl)-6-oxopyridazin-1(6H)-yl)-N-ethylacetamide] was less than 10 µM; that for `O=C(Cn1nc(-c2ccc(OC(F)F)nc2)ccc1=O)NC1CCC1` [Compound I-4, N-cyclobutyl-2-(3-(6-(difluoromethoxy)pyridin-3-yl)-6-oxopyridazin-1(6H)-yl)acetamide] was less than 10 µM; that for `CCCOc1ncc(-c2ccc(=O)n(CC(=O)NC3CCC3)n2)cn1` [Compound I-73, N-cyclobutyl-2-(6-oxo-3-(2-propoxypyrimidin-5-yl)pyridazin-1(6H)-yl)acetamide] was less than 10 µM.
Same read-out and setting: under `O=C(Cn1nc(-c2cnc(NC34CC(C3)C4)nc2)ccc1=O)NC1CCC1` [Compound I-50, 2-(3-(2-(bicyclo[1.1.1]pentan-1-ylamino)pyrimidin-5-yl)-6-oxopyridazin-1(6H)-yl)-N-cyclobutylacetamide] stands less than 10 µM.

The same experiment, now with this note: Table 4B.
In the case of `CCNC(=O)Cn1nc(-c2ccc(OC(F)F)cc2)ccc1=O` [II-10, 2-(3-(4-(difluoromethoxy)phenyl)-6-oxopyridazin-1(6H)-yl)-N-ethylacetamide], the IC50 is less than 10 µM.
Still for that read-out and setting: under `CC(C)CNC(=O)Cn1nc(-c2ccc(OC(F)F)cc2)ccc1=O` [II-13, 2-(3-(4-(difluoromethoxy)phenyl)-6-oxopyridazin-1(6H)-yl)-N-isobutylacetamide] stands 10 to 100 µM; under `CCNC(=O)Cn1nc(-c2ccc(OC(F)F)cc2)cc(C)c1=O` [II-21, 2-(3-(4-(difluoromethoxy)phenyl)-5-methyl-6-oxopyridazin-1(6H)-yl)-N-ethylacetamide], greater than 100 µM; under `O=C(Cn1nc(-c2ccc(OC(F)F)cc2)ccc1=O)NCc1ccccc1Cl` [II-3, N-(2-chlorobenzyl)-2-(3-(4-(difluoromethoxy)phenyl)-6-oxopyridazin-1(6H)-yl)acetamide], less than 10 µM.
Still for that read-out and setting: the value for `CCCCNC(=O)Cn1nc(-c2ccc(OC(F)F)cc2)ccc1=O` [II-17, N-butyl-2-(3-(4-(difluoromethoxy)phenyl)-6-oxopyridazin-1(6H)-yl)acetamide] was 10 to 100 µM.

Staying with this experiment, now noted: Table 4C.
`CCC1CCC(CNC(=O)Cn2nc(-c3ccccc3)ccc2=O)CC1` (centres unmarked) [IIIc-55, N-((4-ethylcyclohexyl)methyl)-2-(6-oxo-3-phenylpyridazin-1(6H)-yl)acetamide]: the IC50 was 10 to 100 µM.
Still for that read-out and setting: the value for `CC(C)OCCCNC(=O)Cn1nc(-c2ccc(Cl)cc2)ccc1=O` [IIIc-33, 2-(3-(4-chlorophenyl)-6-oxopyridazin-1(6H)-yl)-N-(3-isopropoxypropyl)acetamide] was 10 to 100 µM; that for `COc1ccccc1NC(=O)Cn1nc(-c2ccc(Cl)cc2)ccc1=O` [IIIc-23, 2-(3-(4-chlorophenyl)-6-oxopyridazin-1(6H)-yl)-N-(2-methoxyphenyl)acetamide] was less than 10 µM; that for `COc1ccc(-c2ccc(=O)n(CC(=O)NCc3ccccc3)n2)c(F)c1` [IIIb-54, N-benzyl-2-(3-(2-fluoro-4-methoxyphenyl)-6-oxopyridazin-1(6H)-yl)acetamide] was greater than 100 µM.
The molecule `COc1ccc(-c2ccc(=O)n(CC(=O)N(C)c3ccccc3)n2)cc1` [IIIc-7, 2-(3-(4-methoxyphenyl)-6-oxopyridazin-1(6H)-yl)-N-methyl-N-phenylacetamide] gave an IC50 of 10 to 100 µM.
On the same count and under the same terms, under `COc1ccc(-c2ccc(=O)n(CC(=O)NCc3ccccc3Cl)n2)cc1OC` [IIIb-40, N-(2-chlorobenzyl)-2-(3-(3,4-dimethoxyphenyl)-6-oxopyridazin-1(6H)-yl)acetamide] stands greater than 100 µM.
On the same count and under the same terms, under `O=C(Cn1nc(-c2ccccc2)ccc1=O)Nc1ccc2[nH]ccc2c1` [IIIc-49, N-(1H-indol-5-yl)-2-(6-oxo-3-phenylpyridazin-1(6H)-yl)acetamide] stands less than 10 µM; under `COc1ccc(-c2ccc(=O)n(CC(=O)Nc3cccc4[nH]ccc34)n2)cc1` [IIIb-3, N-(1H-indol-4-yl)-2-(3-(4-methoxyphenyl)-6-oxopyridazin-1(6H)-yl)acetamide], less than 10 µM; under `O=C(Cn1nc(-c2ccccc2)ccc1=O)NCc1ccccc1Cl` [IIIc-47, N-(2-chlorobenzyl)-2-(6-oxo-3-phenylpyridazin-1(6H)-yl)acetamide], 10 to 100 µM.
Still for that read-out and setting: under `COc1ccc(-c2ccc(=O)n(CC(=O)NC3Cc4ccccc4C3)n2)cc1` [IIIb-8, N-(2,3-dihydro-1H-inden-2-yl)-2-(3-(4-methoxyphenyl)-6-oxopyridazin-1(6H)-yl)acetamide] stands less than 10 µM; under `COc1ccc(-c2ccc(=O)n(CC(=O)NCc3ccccn3)n2)cc1` [IIIa-30, 2-(3-(4-methoxyphenyl)-6-oxopyridazin-1(6H)-yl)-N-(pyridin-2-ylmethyl)acetamide], greater than 100 µM.
On to `COc1ccc(-c2ccc(=O)n(CC(=O)Nc3ccc(Cl)cc3Cl)n2)cc1` [IIIb-11, N-(2,4-dichlorophenyl)-2-(3-(4-methoxyphenyl)-6-oxopyridazin-1(6H)-yl)acetamide], for which the IC50 is less than 10 µM.
`COc1ccc(-c2ccc(=O)n(CC(=O)NCc3cccc(F)c3)n2)cc1` [IIIb-32, N-(3-fluorobenzyl)-2-(3-(4-methoxyphenyl)-6-oxopyridazin-1(6H)-yl)acetamide] returned an IC50 of 10 to 100 µM.
Same read-out and setting: under `COc1ccc(-c2ccc(=O)n(CC(=O)NC3CC3)n2)cc1` [IIIb-22, N-cyclopropyl-2-(3-(4-methoxyphenyl)-6-oxopyridazin-1(6H)-yl)acetamide] stands 10 to 100 µM.
As to `O=C(Cn1nc(-c2ccccc2)ccc1=O)Nc1ccccc1F` [IIIc-66, N-(2-fluorophenyl)-2-(6-oxo-3-phenylpyridazin-1(6H)-yl)acetamide], the IC50 is greater than 100 µM.
As for `O=C(Cn1nc(-c2ccccc2)ccc1=O)NCCC1=CCCCC1` [IIIc-48, N-(2-(cyclohex-1-en-1-yl)ethyl)-2-(6-oxo-3-phenylpyridazin-1(6H)-yl)acetamide], the IC50 was less than 10 µM.
Same read-out and setting: the value for `O=C(Cn1nc(-c2ccccc2)ccc1=O)Nc1ccc2c(c1)OCCO2` [IIIc-64] was greater than 100 µM; that for `COc1ccc(-c2ccc(=O)n(CC(=O)Nc3cccc(C)n3)n2)cc1` [IIIb-59, 2-(3-(4-methoxyphenyl)-6-oxopyridazin-1(6H)-yl)-N-(6-methylpyridin-2-yl)acetamide] was greater than 100 µM; that for `COc1ccc(-c2ccc(=O)n(CC(=O)NC3CCCCC3)n2)c(F)c1` [IIIb-60, N-cyclohexyl-2-(3-(2-fluoro-4-methoxyphenyl)-6-oxopyridazin-1(6H)-yl)acetamide] was greater than 100 µM.
In turn, `CC[C@H](C)NC(=O)Cn1nc(-c2ccc(C)cc2)ccc1=O` [IIIc-2, (S)-N-(sec-butyl)-2-(6-oxo-3-(p-tolyl)pyridazin-1(6H)-yl)acetamide] showed an IC50 of less than 10 µM.
Still for that read-out and setting: the value for `O=C(Cn1nc(-c2ccccc2)ccc1=O)Nc1ccccc1Cl` [IIIc-56, N-(2-chlorophenyl)-2-(6-oxo-3-phenylpyridazin-1(6H)-yl)acetamide] was 10 to 100 µM.
Still for that read-out and setting: under `COc1ccc(-c2ccc(=O)n(CC(=O)NCc3cnn(C)c3)n2)cc1` [IIIa-32, 2-(3-(4-methoxyphenyl)-6-oxopyridazin-1(6H)-yl)-N-((1-methyl-1H-pyrazol-4-yl)methyl) acetamide] stands greater than 100 µM.
